Tested on: C57BL/6 male mice
Experiment: Glucose tolerance test in mice with triacylglycerols: plasma GLP-1 concentration (ELISA)
Format: in vivo
Conditions: 300 μl sample oral per mouse; glucose 2.5 g/kg 60 minutes after sample; blood 30 minutes after glucose; mean±standard error
Method: A glucose tolerance test was carried out by the following method to examine effects of administration of triacylglycerol to mice on the plasma GLP-1 secretion during glucose tolerance.
To the PBS solution (10 ml) obtained in the same manner as in the (1-1) above, 50 mg of carboxymethyl cellulose (trade name “Carboxymethyl cellulose sodium”, manufactured by FUJIFILM Wako Pure Chemical Industries, Ltd.) was added and mixed to obtain a carrier solution. To the obtained carrier solution, 2 g of triacylglycerol (trade name “Tridecanoin <Tricaprin>”, manufactured by New Check Prep Co., Ltd.) in which the constituent fatty acids were all capric acid was added and mixed while heating to obtain TriC10 sample.
A carrier solution was obtained in the same manner as in the (1-2) above. […]
Plasma was prepared from the obtained blood by a conventional method, and the plasma GLP-1 concentration (pM) was measured. Note here that the plasma GLP-1 concentration was measured by ELISA using a commercially available kit (trade name “Glucagon Like Peptide-1 (Active) ELISA”, manufactured by Sigma-Aldrich). […]

Structure (SMILES): CCCCCCCCCC(=O)OCC(COC(=O)CCCCCCCCC)OC(=O)CCCCCCCCC [TriC10, Tridecanoin <Tricaprin>]
- GLP-1 CONCENTRATION (plasma): 2.803 ± 0.952 pM
